Experiment [1] has as its system chain of tracheal rings of guinea pigs. Nature of the experiment: relaxing action on chain of tracheal rings in vitro (bronchospasmolytic action). More on the design: species or system guinea pig. Particulars: for EC50: Cavia porcellus, Column A, negative logarithm of EC50 in mol/l, 50% of maximum relaxation by (-)isoprenaline, read-out: -lg[EC50] trachea (converted); for [EC40 pot.] left atrium / [EC50] trachea: Column C, measure of organ-selective activity; for [EC50] theophylline / [EC50] substance: Column D, trachea.
Procedure: The relaxing action of the 6-aryl-3[2H]pyridazinones I has been tested in vitro on a chain of tracheal rings (Tr.) of guinea pigs. […] The quotient of [EC40pot. ]left atrium and [ED50 ]trachea serves as a measure of the organ-selective activity.
The bronchospasmolytic action of the compounds on the chain of tracheal rings of the guinea pig was tested in vitro:
Four parallel chains of tracheal rings, each consisting of 6 individual rings, of guinea pigs(.male. and .female., 430-600 g) in an organ bath [5 ml, Krebs-Henseleit solution with added phentolamine (10^-5 mol/l), 37° C., initial tension of the organs 2 g, gassing with carbogen] develop a stable, spontaneous tonic contraction after about 20 to 30 minutes. […] Over a period of 20 to 30 minutes, a complete dose/action curve of the test substance is thus obtained. The particular relaxation is expressed as a percentage fraction of the maximum relaxation which can be achieved by administration of (-)isoprenaline (10^-6 mol/1). The concentration of the test substance which causes 50% of the maximum relaxation which can be achieved, expressed by the negative logarithm of the EC50 mol/l: -lg[EC50 ]is a measure of the bronchodilator activity.

The subject of experiment [2] is acetylcholine-induced bronchospasm. The experiment can be described thus: protective effect against acetylcholine-induced bronchospasm in conscious guinea pigs. It is filed as in vivo, guinea pig. To be noted: for Doubling of the latency period / Tripling of the latency period: 100 μmol/kg p.o., 30 min; for Tripling of the latency period: figure in parentheses; for protective effect compared with theophylline: result in words. The protocol: The figure in parentheses indicates the number out of 10 animals in which the latency period more than tripled.
The latency period is to be understood to be the time from the start of acetylcholine-atomization until clear signs of asthma appeared.
The time from the start of atomization to the onset of clear respiratory exertion (in certain circumstances, hypoxic convulsion in the lateral position) is measured, and is denoted the latency period.
The test substance is administered orally by gavage (standard dose 100 μmol/kg, volume 1 ml of 4% strength methocel suspension in 0.9% strength sodium chloride solution/kg). […] Prolongation of the latency period to at least twice its length is regarded as a protective effect.

Experiment [3] has as its system histamine-induced bronchospasm. The experiment can be described thus: inhibition of histamine-induced bronchospasm in anesthetized guinea pigs. It is filed as in vivo, guinea pig. Particulars: for inhibition of histamine-induced bronchospasm, TVi / inhibition of histamine-induced bronchospasm, Vmaxe / inhibition of histamine-induced bronchospasm, Vmaxi: 20 μmol/kg i.v.; for inhibition of histamine-induced bronchospasm compared with theophylline: result in words. The protocol:
A method for simultaneously recording pharmacodynamic and toxic effects on internal sensitive receptors, on the respiration and the cardiovascular system of guinea pigs was used [U. Kilian, E. Muller, E. Ch. […] To characterize the bronchospasm induced by histamine (0.09-0.18 μmol /kg i.v.), the maximum flow rate of the respiratory air during inspiration (Vmaxi) and expiration (Vmaxe) and the breath volume (BVi) were measured. A histamine spasm before administration of the substance was compared with several histamine spasms after administration of the substance. The test substances were administered intravenously (i.v.) and/or intrajejunally (i.j.). 5 to 10 animals were used per measurement, and the arithmetic mean was calculated from the results.

Experiment [4] concerns electrically stimulated left atrium of rats. The experiment can be described thus: positive inotropic action on electrically stimulated left atrium in vitro. More on the design: species or system rat. To be noted: for [EC40 pot.] theophylline / [EC40 pot.] substance: Column E, left atrium; for EC40: Rattus norvegicus, Column B, negative logarithm of EC40pot in mol/l, 40% increase in contraction force, read-out: -lg[EC40 pot.] left atrium (converted).
Procedure: The positive inotropic action was tested in vitro on the electrically stimulated left atrium of rats (l.a.).
The positive inotropic action of the compounds was tested in vitro on the electrically stimulated left atrium of rats.
Isometric contractions (HSE force sensor K-30; Watanabe recorder, Linear Corder Mark 5) of isolated, left atria from rats (.male., 250-300 g) in an organ bath (10 ml, Tyrode nutrient solution, 31° C., gassing with carbogen, initial tension of the organs 0.25 g) under electrical stimulation (HSE stimulator, 7 V, 3 ms, 2 Hz) were recorded. […] The particular increase in the contraction force is expressed in % of the starting value before administration of the substance. The concentration of the test substance which potentiates the contraction force of the atrium by 40% compared with the starting value [EC40pot. mol/l], expressed by the negative logarithm of the [EC40pot mol/l]: -lg[EC40pot ] serves as a measure of the cardiotonic activity.

A value given as a limit tells only on which side of the number the result lay.

In general, EC50 refers to the concentration giving half of the maximal effect. As for `COc1ccc(-c2ccc(=O)[nH]n2)cc1OCC(C)C` [Serial No. 15, 6-(4-methoxy-3-isobutoxyphenyl)-3[2H]pyridazinone], in experiment [1], the EC50 was 0.724 µM, the “[EC40 pot.] left atrium / [EC50] trachea” value is listed as 0.5 and the “[EC50] theophylline / [EC50] substance” value is reported as 186. Besides, in experiment [2], the “Doubling of the latency period” value is 10 N of 10 animals, the “Tripling of the latency period” value is 10 N of 10 animals and the “protective effect compared with theophylline” value was “greater protective effect”. Also, in experiment [3] (2 min), the “inhibition of histamine-induced bronchospasm, TVi” value (“inhibition … TVi” below) amounted to 99%; the “inhibition of histamine-induced bronchospasm, Vmaxe” value (“inhibition … Vmaxe” below) was 108%; the “inhibition of histamine-induced bronchospasm, Vmaxi” value (from here on “inhibition … Vmaxi”) is 172%. Besides, in experiment [3] (10 min), the “inhibition … TVi” value was determined as 107%; the “inhibition … Vmaxe” value came to 123%; the “inhibition … Vmaxi” value was 119%. In experiment [3] (20 min), the “inhibition … TVi” value was found to be 104%; the “inhibition … Vmaxe” value turned out to be 103%; the “inhibition … Vmaxi” value came to 110%. In addition, in experiment [3] (30 min), the “inhibition … TVi” value is given as 63%; the “inhibition … Vmaxe” value worked out at 84%; the “inhibition … Vmaxi” value is 82%. For the same molecule, in experiment [3] (60 min), the “inhibition … TVi” value is on record as 33%; the “inhibition … Vmaxe” value worked out at 46%; the “inhibition … Vmaxi” value amounted to 60%. Besides, in experiment [3], the “inhibition of histamine-induced bronchospasm compared with theophylline” value is given as “significantly more effective than theophylline”. For the same molecule, in experiment [4], the “[EC40 pot.] theophylline / [EC40 pot.] substance” value was found to be 1122 and the EC40 was 0.372 µM.

As for `COc1cc(-c2ccc(=O)[nH]n2)ccc1OCC(C)C` [Serial No. 16, 6-(3-methoxy-4-isobutoxyphenyl)-3[2H]pyridazinone], in experiment [1], the EC50 is 0.288 µM, the “[EC40 pot.] left atrium / [EC50] trachea” value came out at 5.8 and the “[EC50] theophylline / [EC50] substance” value was found to be 468. In addition, in experiment [2], the “Doubling of the latency period” value is 8 N of 10 animals, the “Tripling of the latency period” value is recorded as 5 N of 10 animals and the “protective effect compared with theophylline” value is listed as “greater protective effect”. Also, in experiment [3] (2 min), the “inhibition … TVi” value is recorded as 153%; the “inhibition … Vmaxe” value worked out at 145%; the “inhibition … Vmaxi” value stood at 154%. Moreover, in experiment [3] (10 min), the “inhibition … TVi” value was determined as 66%; the “inhibition … Vmaxe” value turned out to be 63%; the “inhibition … Vmaxi” value came out at 73%. Further, in experiment [3] (20 min), the “inhibition … TVi” value is 46%; the “inhibition … Vmaxe” value is given as 60%; the “inhibition … Vmaxi” value is listed as 48%. Further, in experiment [3] (30 min), the “inhibition … TVi” value was 28%; the “inhibition … Vmaxe” value turned out to be 33%; the “inhibition … Vmaxi” value worked out at 34%. For the same molecule, in experiment [3] (60 min), the “inhibition … TVi” value was 13%; the “inhibition … Vmaxe” value came out at 16%; the “inhibition … Vmaxi” value turned out to be 15%. In addition, the “inhibition of histamine-induced bronchospasm compared with theophylline” value in experiment [3] is “significantly more effective than theophylline”. For the same molecule, in experiment [4], the “[EC40 pot.] theophylline / [EC40 pot.] substance” value was 251 and the EC40 is 1.66 µM.

Turning to `CCCOc1ccc(-c2ccc(=S)[nH]n2)cc1OC` [Serial No. 13, 6-(3-methoxy-4-n-propoxyphenyl)-3[2H]pyridazinethione], in experiment [1], the EC50 was 3.09 µM, the “[EC40 pot.] left atrium / [EC50] trachea” value was determined as 324 and the “[EC50] theophylline / [EC50] substance” value worked out at 43.7. Also, in experiment [2], the “Doubling of the latency period” value was 6 N of 10 animals, the “Tripling of the latency period” value is 6 N of 10 animals and the “protective effect compared with theophylline” value is listed as “greater protective effect”. The EC40 in experiment [4] is more than 1000 µM.

These data come from patent US4707481A, “Pyridazinones, their preparation and use, and bronchospasmolytic medicaments containing pyridazinones” (BYK Gulden Lomberg Chemische Fabrik GmbH, priority 1983, dated 1987).
